Laboratory results as given in BigSolDB 2.1.

What does the source list for `N#CNC(=N)N`?
solubility (mole fraction) (in DMF, 278.15 K): 0.183; solubility (mole fraction) (in DMF, 283.15 K): 0.19; solubility (mole fraction) (in DMF, 288.15 K): 0.205; solubility (mole fraction) (in DMF, 293.15 K): 0.215; solubility (mole fraction) (in DMF, 298.15 K): 0.225; solubility (mole fraction) (in DMF, 303.15 K): 0.243; solubility (mole fraction) (in DMF, 308.15 K): 0.248; solubility (mole fraction) (in DMF, 313.15 K): 0.256; solubility (mole fraction) (in DMF, 318.15 K): 0.268; solubility (mole fraction) (in DMF, 323.15 K): 0.275; solubility (mole fraction) (in acetone, 278.15 K): 0.00744; solubility (mole fraction) (in acetone, 283.15 K): 0.0084; solubility (mole fraction) (in acetone, 288.15 K): 0.00923; solubility (mole fraction) (in acetone, 293.15 K): 0.0101; solubility (mole fraction) (in acetone, 298.15 K): 0.011; solubility (mole fraction) (in acetone, 303.15 K): 0.0118; solubility (mole fraction) (in acetone, 308.15 K): 0.0127; solubility (mole fraction) (in acetone, 313.15 K): 0.0136; solubility (mole fraction) (in acetone, 318.15 K): 0.0144; solubility (mole fraction) (in acetone, 323.15 K): 0.015; solubility (mole fraction) (in ethanol, 278.15 K): 0.00374; solubility (mole fraction) (in ethanol, 283.15 K): 0.00403; solubility (mole fraction) (in ethanol, 288.15 K): 0.00449; solubility (mole fraction) (in ethanol, 293.15 K): 0.00493; solubility (mole fraction) (in ethanol, 298.15 K): 0.00591; solubility (mole fraction) (in ethanol, 303.15 K): 0.00654; solubility (mole fraction) (in ethanol, 308.15 K): 0.00738; solubility (mole fraction) (in ethanol, 313.15 K): 0.00805; solubility (mole fraction) (in ethanol, 318.15 K): 0.00883; solubility (mole fraction) (in ethanol, 323.15 K): 0.0097; solubility (mole fraction) (in ethylene glycol, 278.15 K): 0.0187; solubility (mole fraction) (in ethylene glycol, 283.15 K): 0.0245; solubility (mole fraction) (in ethylene glycol, 288.15 K): 0.0289; solubility (mole fraction) (in ethylene glycol, 293.15 K): 0.0377; solubility (mole fraction) (in ethylene glycol, 298.15 K): 0.048; solubility (mole fraction) (in ethylene glycol, 303.15 K): 0.0587; solubility (mole fraction) (in ethylene glycol, 308.15 K): 0.0655; solubility (mole fraction) (in ethylene glycol, 313.15 K): 0.0805; solubility (mole fraction) (in ethylene glycol, 318.15 K): 0.0995; solubility (mole fraction) (in ethylene glycol, 323.15 K): 0.12; solubility (mole fraction) (in methanol, 278.15 K): 0.0141; solubility (mole fraction) (in methanol, 283.15 K): 0.0162; solubility (mole fraction) (in methanol, 288.15 K): 0.0193; solubility (mole fraction) (in methanol, 293.15 K): 0.021; solubility (mole fraction) (in methanol, 298.15 K): 0.0231; solubility (mole fraction) (in methanol, 303.15 K): 0.0264; solubility (mole fraction) (in methanol, 308.15 K): 0.028; solubility (mole fraction) (in methanol, 313.15 K): 0.0297; solubility (mole fraction) (in methanol, 318.15 K): 0.032; solubility (mole fraction) (in methanol, 323.15 K): 0.0347; solubility (mole fraction) (in water, 278.15 K): 0.00303; solubility (mole fraction) (in water, 283.15 K): 0.00387; solubility (mole fraction) (in water, 288.15 K): 0.00526; solubility (mole fraction) (in water, 293.15 K): 0.00707; solubility (mole fraction) (in water, 298.15 K): 0.00891; solubility (mole fraction) (in water, 303.15 K): 0.0114; solubility (mole fraction) (in water, 308.15 K): 0.0141; solubility (mole fraction) (in water, 313.15 K): 0.0172; solubility (mole fraction) (in water, 318.15 K): 0.021; solubility (mole fraction) (in water, 323.15 K): 0.0265
